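96-well plates; 48 h exposure; 5 concentrations. Endpoints by linear interpolation between flanking doses. Not reached: highest tested concentration assigned. GI50 = concentration required for 50% inhibition of growth.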 Activity calls are given as the source filed them. No stated cut-off is given here; in the data, active = GI50 up to about 1.1 µM and inactive = higher.
What was measured:
Test in all cases: NCI anticancer screen, dose series, 48 h
HCT-116 = system: HCT-116
KM12 = system: KM12
HCT-15 = system: HCT-15
OVCAR-4 = system: OVCAR-4
SN12C = system: SN12C
HOP-62 = system: HOP-62
UO-31 = system: UO-31
COLO 205 = system: COLO 205
HCC 2998 = system: HCC 2998
BT-549 = system: BT-549
SF-295 = system: SF-295
Malme-3M = system: Malme-3M
DU-145 = system: DU-145
CCRF-CEM = system: CCRF-CEM
SK-MEL-28 = system: SK-MEL-28
SK-MEL-5 = system: SK-MEL-5
MCF7 = system: MCF7
NCI-H522 = system: NCI-H522
RXF 393 = system: RXF 393

Row | SMILES | GI50 (HCT-116) | GI50 (KM12) | GI50 (HCT-15) [µM] | GI50 (OVCAR-4) | GI50 (SN12C) | GI50 (HOP-62) | GI50 (UO-31) | GI50 (COLO 205) | GI50 (HCC 2998) | GI50 (BT-549) | GI50 (SF-295) | GI50 (Malme-3M) | GI50 (DU-145) | GI50 (CCRF-CEM) | GI50 (SK-MEL-28) | GI50 (SK-MEL-5) | GI50 (MCF7) | GI50 (NCI-H522) | GI50 (RXF 393)
1 | COc1ccccc1C1SCC(=O)N1c1ccc(-n2c(-c3ccccc3)nc3ccccc3c2=O)cc1 (stereo not given) | 57.1 µM (inactive) | 29.9 µM (inactive) | 54.2 | 15.8 µM (inactive) | > 100 µM (inactive) | > 100 µM (inactive) | 9.1 µM (inactive) | > 100 µM (inactive) | 70.6 µM (inactive) | > 100 µM (inactive) | 75.5 µM (inactive) | 69.2 µM (inactive) | 52.5 µM (inactive) | 44.5 µM (inactive) | > 100 µM (inactive) | 37.5 µM (inactive) | 39.1 µM (inactive) | 40.3 µM (inactive) | –
2 | O=C(O)CNC(=O)c1c2ccccc2nc2ccccc12 | > 100 µM (inactive) | > 100 µM (inactive) | > 100 | > 100 µM (inactive) | > 100 µM (inactive) | > 100 µM (inactive) | > 100 µM (inactive) | > 100 µM (inactive) | > 100 µM (inactive) | 20.8 µM (inactive) | > 100 µM (inactive) | > 100 µM (inactive) | > 100 µM (inactive) | > 100 µM (inactive) | > 100 µM (inactive) | > 100 µM (inactive) | > 100 µM (inactive) | > 100 µM (inactive) | –
3 | O=C1C(Br)=C(C2=CC(=P(c3ccccc3)(c3ccccc3)c3ccccc3)C=C2)C(=O)C(Br)=C1C1=CC(=P(c2ccccc2)(c2ccccc2)c2ccccc2)C=C1 | 99.1 µM (inactive) | > 100 µM (inactive) | – | 76 µM (inactive) | > 100 µM (inactive) | > 100 µM (inactive) | > 100 µM (inactive) | > 100 µM (inactive) | – | > 100 µM (inactive) | > 100 µM (inactive) | 18.3 µM (inactive) | > 100 µM (inactive) | > 100 µM (inactive) | 41.8 µM (inactive) | > 100 µM (inactive) | > 100 µM (inactive) | 19.9 µM (inactive) | > 100 µM (inactive)
4 | CC(C)(NC(=O)OCc1ccccc1)C(=O)OC(=O)C(C)(C)NC(=O)OCc1ccccc1 | > 100 µM (inactive) | > 100 µM (inactive) | > 100 | > 100 µM (inactive) | > 100 µM (inactive) | > 100 µM (inactive) | > 100 µM (inactive) | > 100 µM (inactive) | – | > 100 µM (inactive) | > 100 µM (inactive) | > 100 µM (inactive) | > 10 µM (inactive) | > 100 µM (inactive) | > 100 µM (inactive) | > 100 µM (inactive) | > 100 µM (inactive) | > 100 µM (inactive) | –
5 | C=CCN1CCC(c2cc(C(=O)OCC)[nH]c2-c2cc(C)no2)C1=O (stereo not given) | > 100 µM (inactive) | > 100 µM (inactive) | > 100 | > 100 µM (inactive) | > 100 µM (inactive) | > 100 µM (inactive) | > 100 µM (inactive) | > 100 µM (inactive) | > 100 µM (inactive) | > 100 µM (inactive) | > 100 µM (inactive) | > 100 µM (inactive) | > 100 µM (inactive) | > 100 µM (inactive) | > 100 µM (inactive) | > 100 µM (inactive) | > 100 µM (inactive) | – | > 100 µM (inactive)
6 | CN1CCCCC1CCN1c2ccccc2Sc2ccc([S+](C)[O-])cc21 (stereo not given) [MESORIDAZINE] | > 100 µM (inactive) | > 100 µM (inactive) | > 100 | > 100 µM (inactive) | > 100 µM (inactive) | > 100 µM (inactive) | – | > 100 µM (inactive) | – | > 100 µM (inactive) | > 100 µM (inactive) | > 100 µM (inactive) | > 100 µM (inactive) | > 100 µM (inactive) | > 100 µM (inactive) | > 100 µM (inactive) | > 100 µM (inactive) | > 100 µM (inactive) | > 100 µM (inactive)

— ChEMBL document CHEMBL1201862, “PubChem BioAssay data set” (2004)
